Assay results reported in paper PMC9186351, “Discovery of N-quinazolinone-4-hydroxy-2-quinolone-3-carboxamides as DNA gyrase B-targeted antibacterial agents” (Journal of Enzyme Inhibition and Medicinal Chemistry, 2022).
≈ marks a conversion by molar mass, not a printed value. Where “and” joins values, the source holds several entries; their conditions need not be identical. Equal entries are not always repeated. Where two headings read alike, the source gives them in different places.

Tests used:
S. aureus GyrB = target: T1, S. aureus GyrB (Staphylococcus aureus, UniProt P0A0K8); test: S. aureus GyrB (Gyrase ATPase) inhibition assay, ADP-Glo; assay type: biochemical; settings: for inhibition at 10 µM: read-out: GyrB inhibition rate (%) at 10 μM; for IC50: IC50 for GyrB (µM, mean ± SD), S. aureus Gyrase ATPase inhibition, average of duplicates
T1 construct: purchased Inspiralis Ltd., Norwich, UK
Description: The IC50 values for S. aureus GyrB were determined according to our previously reported protocol.[16] For this assay, the reaction mixture (10 μL) consisted of 5 nM S. aureus Gyrase (Inspiralis Ltd., Norwich, UK), assay buffer [40 mM HEPES-KOH (pH 7.6), 10 mM magnesium acetate, 10 mM dithiothreitol, 50 g/L BSA, and 500 mM potassium glutamate], the test compound (0.01–100 μM), 1% DMSO, 10 nM linear pBR322 DNA, and […]. The target compound was dissolved in DMSO (10 mM). A series of dilutions (0.1–1000 μM) were prepared from the stock solution with the assay buffer and DMSO. The dilutions (1 μL) were respectively added to the PCR tubes along with the buffer (7 μL), the linear pBR322 DNA (0.5 μL), S. aureus Gyrase (0.5 μL), and ATP (1 μL). The PCR tubes were sealed and incubated at 37 °C for 30 min. The ADP-Glo reagent (40 μL) was added to stop the reaction and use up the remaining ATP.
The detection reagent (50 μL) was then added and mixed. After 5 min, the mixture in each PCR tube was put in the well of a 96-well plate and its luminescence was measured by the BioTek Synergy 2 microplate reader. The activity values (%) of S. aureus Gyrase treated by the test compound at different concentrations were determined based on the luminescence. GraphPad Prism version 5 software (GraphPad Software Inc., La Jolla, CA) was used to calculate the IC50 values.

[1] = system: methicillin-sensitive S. aureus (MSSA); test: MIC by broth microdilution, MSSA isolates; assay type: cell-based; settings: Staphylococcus aureus
Description: All of the bacterial strains used in this study were obtained from the Collection Centre of Pathogen Microorganism of Chinese Academy of Medical Sciences (CAMS-CCPM-A) in China. All of the isolates were stored at −80 °C and streaked on tryptic soy agar (TSA) plates to obtain overnight cultures. The MICs of the test compounds were determined by the broth microdilution method in accordance with the Clinical and Laboratory Standards Institute (CLSI) guidelines.[20] Cation-adjusted Mueller-Hinton broth (CAMHB) was used as the growth medium for MIC assays. Briefly, 100 μL of serially diluted compounds (starting concentrations were 64 μg/mL) in CAMH broth were added to the wells of 96-well microtiter plates. Then, 10 µL of 5 × 10^6 CFU/mL bacterial culture was added to each well. […] The MIC was defined as the lowest concentration of a compound that inhibited visual growth of the bacteria. Vancomycin was set as the positive control for this assay.

[2] = ATCC 29213 / BAA-1708 / BAA-976 / MSSA, ATCC 29213, 15, 18-3, BAA976, BAA1708, span over isolates, read-out: MIC over the five MSSA isolates
[3] = ATCC 29213 / MSSA, MSSA ATCC 29213, read-out: MIC
[4] = BAA-976 / MSSA, MSSA BAA976, read-out: MIC
[5] = BAA-1708 / MSSA, MSSA BAA1708, read-out: MIC

T1 sequence (P0A0K8 whole entry): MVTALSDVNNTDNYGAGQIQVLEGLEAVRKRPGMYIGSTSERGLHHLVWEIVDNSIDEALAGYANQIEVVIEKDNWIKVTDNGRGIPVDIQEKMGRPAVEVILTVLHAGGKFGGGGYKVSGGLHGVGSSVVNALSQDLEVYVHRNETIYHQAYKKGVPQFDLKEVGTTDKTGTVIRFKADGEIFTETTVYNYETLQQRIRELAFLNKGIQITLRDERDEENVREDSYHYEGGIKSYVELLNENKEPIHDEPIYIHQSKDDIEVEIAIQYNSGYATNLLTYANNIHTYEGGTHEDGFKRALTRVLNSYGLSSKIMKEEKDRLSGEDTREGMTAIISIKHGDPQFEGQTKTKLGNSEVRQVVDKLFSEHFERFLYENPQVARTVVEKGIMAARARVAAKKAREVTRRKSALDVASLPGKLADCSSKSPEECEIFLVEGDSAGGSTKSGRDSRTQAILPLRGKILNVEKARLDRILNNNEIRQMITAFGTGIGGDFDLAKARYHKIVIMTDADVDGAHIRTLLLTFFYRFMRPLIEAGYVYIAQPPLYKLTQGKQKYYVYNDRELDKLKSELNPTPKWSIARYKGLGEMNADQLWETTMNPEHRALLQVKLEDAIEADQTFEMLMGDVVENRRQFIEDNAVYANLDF
T1 sequence (P20831 whole entry, further chain): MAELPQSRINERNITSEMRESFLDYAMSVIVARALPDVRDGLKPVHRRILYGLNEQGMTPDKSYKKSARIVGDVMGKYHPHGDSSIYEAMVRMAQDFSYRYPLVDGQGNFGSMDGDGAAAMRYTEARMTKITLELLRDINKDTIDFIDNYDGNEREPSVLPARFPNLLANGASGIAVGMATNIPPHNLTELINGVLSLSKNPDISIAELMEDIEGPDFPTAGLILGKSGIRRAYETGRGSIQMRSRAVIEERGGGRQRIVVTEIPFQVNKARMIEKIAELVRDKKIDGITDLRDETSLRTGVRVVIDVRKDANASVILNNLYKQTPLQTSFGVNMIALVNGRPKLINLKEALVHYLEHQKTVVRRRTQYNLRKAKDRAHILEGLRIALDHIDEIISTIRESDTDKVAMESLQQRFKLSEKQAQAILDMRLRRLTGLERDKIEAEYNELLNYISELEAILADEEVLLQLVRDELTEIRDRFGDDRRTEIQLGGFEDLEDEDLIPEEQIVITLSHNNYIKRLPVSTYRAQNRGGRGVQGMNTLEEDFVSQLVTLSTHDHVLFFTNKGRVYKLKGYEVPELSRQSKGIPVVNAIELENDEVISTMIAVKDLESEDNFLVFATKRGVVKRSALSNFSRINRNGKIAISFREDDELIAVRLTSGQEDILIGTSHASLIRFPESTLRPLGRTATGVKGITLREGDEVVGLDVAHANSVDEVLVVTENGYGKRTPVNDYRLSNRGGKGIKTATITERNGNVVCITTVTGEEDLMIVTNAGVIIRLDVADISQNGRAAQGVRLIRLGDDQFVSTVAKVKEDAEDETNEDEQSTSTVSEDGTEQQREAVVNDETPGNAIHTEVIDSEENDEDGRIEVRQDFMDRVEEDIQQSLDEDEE

SMILES	inhibition at 10 µM (S. aureus GyrB) [%]	IC50 (S. aureus GyrB)	melting point [°C]	also measured
CCCCCC(=O)NNC(=O)c1c(O)c2ccccc2n(CCC)c1=O [AG-690/11232780]	3			
CCCCCc1nc2ccc(C(F)(F)F)cc2c(=O)n1NC(=O)c1c(O)c2ccccc2n(CC)c1=O [f5, N-(4-oxo-2-pentyl-6-(trifluoromethyl)quinazolin-3(4H)-yl)-1-ethyl-4-hydroxy-2-oxo-1,2-dihydroquinoline-3-carboxamide]		0.81 ± 0.17 µM	128.3 to 130.2	
CCn1c(=O)c(C(=O)NNS(=O)(=O)c2ccc(Br)cc2)c(O)c2ccccc21 [AG-690/11765340]	10			
CCCn1c(=O)c(C(=O)NNC(=O)Cc2ccccc2)c(O)c2ccccc21 [AG- 690/36956135]	6			
CCCCc1nc2ccccc2c(=O)n1NC(=O)c1c(O)c2ccccc2n(CC)c1=O [f16, N-(2-butyl-4-oxoquinazolin-3(4H)-yl)-1-ethyl-4-hydroxy-2-oxo-1,2-dihydroquinoline-3-carboxamide]		2.34 ± 0.34 µM	139.8 to 140.5	
C=CCn1c(=O)c(C(=O)NNC(=O)Cc2ccncc2)c(O)c2ccccc21 [AG-690/36469055]	15			
CCCCCc1nc2ccc(C)cc2c(=O)n1NC(=O)c1c(O)c2ccccc2n(CC)c1=O [f3, N-(6-methyl-4-oxo-2-pentylquinazolin-3(4H)-yl)-1-ethyl-4-hydroxy-2-oxo-1,2-dihydroquinoline-3-carboxamide]		0.83 ± 0.11 µM	160.6 to 162.3	
CCCCCc1nc2cc(OC)c(OC)cc2c(=O)n1NC(=O)c1c(O)c2ccccc2n(CC)c1=O [f9, N-(6,7-dimethoxy-4-oxo-2-pentylquinazolin-3(4H)-yl)-1-ethyl-4-hydroxy-2-oxo-1,2-dihydroquinoline-3-carboxamide]		1.06 ± 0.13 µM	172.4 to 174.1	
CCCCCc1nc2cc(C)ccc2c(=O)n1NC(=O)c1c(O)c2ccccc2n(CC)c1=O [f7, N-(7-methyl-4-oxo-2-pentylquinazolin-3(4H)-yl)-1-ethyl-4-hydroxy-2-oxo-1,2-dihydroquinoline-3-carboxamide]		24.4 ± 4.5 µM	167.2 to 168.4	
CCCCCc1nc2cc(OC)ccc2c(=O)n1NC(=O)c1c(O)c2ccccc2n(CC)c1=O [f8, N-(7-methoxy-4-oxo-2-pentylquinazolin-3(4H)-yl)-1-ethyl-4-hydroxy-2-oxo-1,2-dihydroquinoline-3-carboxamide]		7.9 ± 0.1 µM	146.8 to 147.6	
CCCCCc1nc2c(OC)cccc2c(=O)n1NC(=O)c1c(O)c2ccccc2n(CC)c1=O [f12, N-(8-methoxy-4-oxo-2-pentylquinazolin-3(4H)-yl)-1-ethyl-4-hydroxy-2-oxo-1,2-dihydroquinoline-3-carboxamide]		0.878 µM and 0.88 µM	178.3 to 180.1	
CCCCCc1nc2c(Cl)cccc2c(=O)n1NC(=O)c1c(O)c2ccccc2n(CC)c1=O [f10, N-(8-chloro-4-oxo-2-pentylquinazolin-3(4H)-yl)-1-ethyl-4-hydroxy-2-oxo-1,2-dihydroquinoline-3-carboxamide]		9.7 ± 2.1 µM	158.6 to 160.4	
O=C(Nc1ccccc1-c1ccccc1)c1c(O)c2cccc3c2n(c1=O)CCC3 [AE-641/00629040]	11			
CCCCCc1nc2ccc(OC)cc2c(=O)n1NC(=O)c1c(O)c2ccccc2n(CC)c1=O [f4, N-(6-methoxy-4-oxo-2-pentylquinazolin-3(4H)-yl)-1-ethyl-4-hydroxy-2-oxo-1,2-dihydroquinoline-3-carboxamide]		0.31 ± 0.07 µM	98.7 to 99.9	MIC [1, 2]: ≥ 32 µg/mL; MIC [1, 3]: > 64 µg/mL; MIC [1, 4]: 32 µg/mL (≈ 67.2 µM); MIC [1, 5]: > 64 µg/mL; MIC ([1]; MSSA, MSSA 15, read-out: MIC): 64 µg/mL (≈ 134 µM); MIC ([1]; MSSA, MSSA 18-3, read-out: MIC): 64 µg/mL (≈ 134 µM)
CCCCCc1nc2ccc(Cl)cc2c(=O)n1NC(=O)c1c(O)c2ccccc2n(CC)c1=O [f2, N-(6-chloro-4-oxo-2-pentylquinazolin-3(4H)-yl)-1-ethyl-4-hydroxy-2-oxo-1,2-dihydroquinoline-3-carboxamide]		1.58 ± 0.06 µM	141.5 to 143.1	
CCCCCCn1c(=O)c(C(=O)Nc2ccccc2Br)c(O)c2ccccc21 [AG-690/11232728]	12			
CCCCCNC(=O)c1c(O)c2ccccc2n(C)c1=O [AG-690/11232717]	13			
Cc1noc(NC(=O)c2c(O)c3cccc4c3n(c2=O)CCC4)c1C [AE-641/00628057]	7			
CCCCCCn1c(=O)c(C(=O)Nc2nc(C)cs2)c(O)c2ccccc21 [AG-690/36956124]	10			
CCCCCc1nc2cc(Cl)ccc2c(=O)n1NC(=O)c1c(O)c2ccccc2n(CC)c1=O [f6, N-(7-chloro-4-oxo-2-pentylquinazolin-3(4H)-yl)-1-ethyl-4-hydroxy-2-oxo-1,2-dihydroquinoline-3-carboxamide]		0.83 ± 0.01 µM	128.4 to 130.2	
CCn1c(=O)c(C(=O)NNC(=O)c2ccccc2Br)c(O)c2ccccc21 [AG-690/11765298]	45			
CCCCCCn1c(=O)c(C(=O)Nc2ccc(Cl)cn2)c(O)c2ccccc21 [AG-690/11557825]	6			
CCCCCc1nc2c(C)cccc2c(=O)n1NC(=O)c1c(O)c2ccccc2n(CC)c1=O [f11, N-(8-methyl-4-oxo-2-pentylquinazolin-3(4H)-yl)-1-ethyl-4-hydroxy-2-oxo-1,2-dihydroquinoline-3-carboxamide]		0.77 ± 0.02 µM	142.7 to 144.3	
CCCc1nc2ccccc2c(=O)n1NC(=O)c1c(O)c2ccccc2n(CC)c1=O [f15, N-(4-oxo-2-propylquinazolin-3(4H)-yl)-1-ethyl-4-hydroxy-2-oxo-1,2-dihydroquinoline-3-carboxamide]		11.9 ± 2.3 µM	158.6 to 160.7	
CCc1nc2ccccc2c(=O)n1NC(=O)c1c(O)c2ccccc2n(CC)c1=O [f14, N-(2-ethyl-4-oxoquinazolin-3(4H)-yl)-1-ethyl-4-hydroxy-2-oxo-1,2-dihydroquinoline-3-carboxamide]		0.28 ± 0.04 µM		MIC [1, 2]: ≥ 32 µg/mL; MIC [1, 3]: > 64 µg/mL; MIC [1, 4]: 32 µg/mL (≈ 79.1 µM); MIC [1, 5]: 64 µg/mL (≈ 158 µM); MIC ([1]; MSSA, MSSA 15, read-out: MIC): 64 µg/mL (≈ 158 µM); MIC ([1]; MSSA, MSSA 18-3, read-out: MIC): > 64 µg/mL
CCn1c(=O)c(C(=O)Nn2c(C)nc3ccccc3c2=O)c(O)c2ccccc21 [f13, N-(2-methyl-4-oxoquinazolin-3(4H)-yl)-1-ethyl-4-hydroxy-2-oxo-1,2-dihydroquinoline-3-carboxamide]		1.64 ± 0.23 µM		
